Reference: US9440977B2, “Compositions, uses and methods for their preparation” (priority 2013, dated 2016)
pIC50: −log10 of the molar value.

Tests used:
Assay in all cases: JAK activity, Invitrogen SelectScreen Biochemical Kinase Profiling, Z'-LYTE
Conditions in all cases: ATP concentration at Km
JAK2 = JAK2 (Homo sapiens, UniProt O60674)
Experimental: (§1) JAK activity was determined using Invitrogen's SelectScreen® Biochemical Kinase Profiling Service using the Z'-LYTE Screening Protocol and Assay Conditions (ATP concentration at Km).

JAK1 = JAK1 (Homo sapiens, UniProt P23458)
Experimental: as §1

JAK3 = molecular target: T1, JAK3 (Homo sapiens, UniProt P52333)
T1 sequence (P52333 1-1124): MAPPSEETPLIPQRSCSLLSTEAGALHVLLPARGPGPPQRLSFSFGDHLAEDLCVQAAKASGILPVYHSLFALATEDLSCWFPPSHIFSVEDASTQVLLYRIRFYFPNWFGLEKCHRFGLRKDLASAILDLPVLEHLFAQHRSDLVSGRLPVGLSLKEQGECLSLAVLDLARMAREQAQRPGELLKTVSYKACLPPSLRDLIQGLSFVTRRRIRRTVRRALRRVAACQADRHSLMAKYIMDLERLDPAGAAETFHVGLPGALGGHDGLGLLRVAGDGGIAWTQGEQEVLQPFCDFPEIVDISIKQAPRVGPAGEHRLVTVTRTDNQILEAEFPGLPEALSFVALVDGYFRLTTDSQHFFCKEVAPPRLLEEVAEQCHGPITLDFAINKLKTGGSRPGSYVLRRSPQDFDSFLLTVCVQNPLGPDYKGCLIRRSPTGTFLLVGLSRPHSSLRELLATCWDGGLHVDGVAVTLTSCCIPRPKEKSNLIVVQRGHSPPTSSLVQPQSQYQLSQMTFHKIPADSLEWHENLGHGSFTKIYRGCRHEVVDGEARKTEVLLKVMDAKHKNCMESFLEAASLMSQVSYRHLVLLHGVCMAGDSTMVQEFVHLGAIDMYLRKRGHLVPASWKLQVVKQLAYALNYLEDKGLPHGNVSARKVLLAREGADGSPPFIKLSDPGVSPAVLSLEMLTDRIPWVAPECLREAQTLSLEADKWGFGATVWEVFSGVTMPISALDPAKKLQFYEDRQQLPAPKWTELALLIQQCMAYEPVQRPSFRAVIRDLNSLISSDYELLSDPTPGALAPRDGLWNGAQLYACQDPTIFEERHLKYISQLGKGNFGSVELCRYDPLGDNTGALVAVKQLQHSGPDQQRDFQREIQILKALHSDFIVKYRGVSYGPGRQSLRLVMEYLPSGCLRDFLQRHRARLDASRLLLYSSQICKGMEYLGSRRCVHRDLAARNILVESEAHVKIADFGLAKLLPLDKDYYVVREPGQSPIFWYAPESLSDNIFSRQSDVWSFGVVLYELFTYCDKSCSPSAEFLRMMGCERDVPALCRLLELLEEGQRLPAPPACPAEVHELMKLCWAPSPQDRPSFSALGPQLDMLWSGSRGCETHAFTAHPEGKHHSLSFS
Experimental: as §1

Sequence of JAK2 (O60674 whole entry): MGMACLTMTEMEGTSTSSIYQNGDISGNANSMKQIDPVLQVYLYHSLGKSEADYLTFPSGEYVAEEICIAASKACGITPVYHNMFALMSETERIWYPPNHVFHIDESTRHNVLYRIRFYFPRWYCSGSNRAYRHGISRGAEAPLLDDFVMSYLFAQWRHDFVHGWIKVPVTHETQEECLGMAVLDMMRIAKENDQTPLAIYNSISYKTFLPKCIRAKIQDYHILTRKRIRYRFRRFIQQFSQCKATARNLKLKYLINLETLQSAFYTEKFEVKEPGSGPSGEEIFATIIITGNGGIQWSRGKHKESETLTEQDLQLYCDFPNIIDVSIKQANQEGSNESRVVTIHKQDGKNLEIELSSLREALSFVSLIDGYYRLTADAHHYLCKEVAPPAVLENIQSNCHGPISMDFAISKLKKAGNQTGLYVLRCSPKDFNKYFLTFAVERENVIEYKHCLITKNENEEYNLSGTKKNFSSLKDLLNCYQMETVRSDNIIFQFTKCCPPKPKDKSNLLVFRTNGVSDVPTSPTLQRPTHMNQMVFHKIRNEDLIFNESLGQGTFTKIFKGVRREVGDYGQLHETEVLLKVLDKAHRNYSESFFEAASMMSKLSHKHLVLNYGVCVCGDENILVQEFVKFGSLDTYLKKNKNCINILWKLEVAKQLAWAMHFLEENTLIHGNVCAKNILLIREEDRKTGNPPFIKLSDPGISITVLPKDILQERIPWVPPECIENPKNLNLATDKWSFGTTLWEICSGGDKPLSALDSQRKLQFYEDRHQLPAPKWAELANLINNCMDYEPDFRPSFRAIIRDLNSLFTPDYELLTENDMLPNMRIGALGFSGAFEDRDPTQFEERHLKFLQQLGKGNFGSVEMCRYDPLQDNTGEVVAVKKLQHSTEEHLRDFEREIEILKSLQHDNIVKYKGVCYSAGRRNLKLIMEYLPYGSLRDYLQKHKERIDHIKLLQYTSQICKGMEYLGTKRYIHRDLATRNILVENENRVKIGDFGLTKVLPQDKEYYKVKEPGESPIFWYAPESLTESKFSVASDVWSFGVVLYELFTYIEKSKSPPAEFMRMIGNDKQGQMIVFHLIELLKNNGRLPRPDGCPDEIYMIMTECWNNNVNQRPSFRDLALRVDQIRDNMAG
Sequence of JAK1 (P23458 whole entry): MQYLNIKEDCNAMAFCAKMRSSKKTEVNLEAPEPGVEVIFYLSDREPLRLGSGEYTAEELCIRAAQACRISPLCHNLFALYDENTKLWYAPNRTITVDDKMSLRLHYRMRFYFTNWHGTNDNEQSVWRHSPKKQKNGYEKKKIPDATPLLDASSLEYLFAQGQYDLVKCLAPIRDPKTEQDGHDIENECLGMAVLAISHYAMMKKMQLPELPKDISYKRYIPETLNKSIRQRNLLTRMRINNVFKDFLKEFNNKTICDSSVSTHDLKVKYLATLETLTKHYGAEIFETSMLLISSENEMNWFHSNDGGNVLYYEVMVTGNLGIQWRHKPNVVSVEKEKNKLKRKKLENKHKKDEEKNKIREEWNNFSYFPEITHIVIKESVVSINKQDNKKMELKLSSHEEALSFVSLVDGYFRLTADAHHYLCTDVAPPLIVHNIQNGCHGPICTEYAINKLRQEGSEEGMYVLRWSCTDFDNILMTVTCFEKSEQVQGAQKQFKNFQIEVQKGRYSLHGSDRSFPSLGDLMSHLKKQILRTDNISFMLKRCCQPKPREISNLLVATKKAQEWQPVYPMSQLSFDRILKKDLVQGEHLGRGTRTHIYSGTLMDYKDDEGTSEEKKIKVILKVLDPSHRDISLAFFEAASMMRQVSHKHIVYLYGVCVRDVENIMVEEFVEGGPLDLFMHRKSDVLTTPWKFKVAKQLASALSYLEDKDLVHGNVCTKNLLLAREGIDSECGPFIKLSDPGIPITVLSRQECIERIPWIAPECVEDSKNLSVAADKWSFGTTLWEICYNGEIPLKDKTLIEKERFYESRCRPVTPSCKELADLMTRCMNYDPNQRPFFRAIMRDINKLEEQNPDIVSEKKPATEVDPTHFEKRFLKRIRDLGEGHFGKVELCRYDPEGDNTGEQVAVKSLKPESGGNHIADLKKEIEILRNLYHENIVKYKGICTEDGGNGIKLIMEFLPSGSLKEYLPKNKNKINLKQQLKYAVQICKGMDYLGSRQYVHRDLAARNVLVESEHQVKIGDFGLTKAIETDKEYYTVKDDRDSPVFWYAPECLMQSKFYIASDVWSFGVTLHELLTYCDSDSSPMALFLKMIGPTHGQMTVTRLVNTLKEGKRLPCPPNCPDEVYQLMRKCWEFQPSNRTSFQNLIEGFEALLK

Row | pIC50 (JAK2) | pIC50 (JAK1) | pIC50 (JAK3) | Structure (SMILES)
1 | > 8.00 | 7.00 to 8.00 | < 7.00 | N#CCC(C1CCCC1)n1cc2c(n1)C(=O)c1c[nH]c3nccc-2c13 (stereo not drawn) [Example 1, 3-cyclopentyl-3-{7-oxo-4,5,10,12-tetraazatetracyclo[6.6.1.0^2,6.0^11,15]pentadeca-1(15),2,5,8,11,13-hexaen-4-yl}propanenitrile]
2 | 7.00 to 8.00 | < 7.00 | < 7.00 | N#CCC(C1CCCC1)n1ncc2c1C(=O)c1c[nH]c3nccc-2c13 (stereo not drawn) [Example 2, 3-cyclopentyl-3-{7-oxo-4,5,10,12-tetraazatetracyclo[6.6.1.0^2,6.0^11,15]pentadeca-1(15),2(6),3,8,11,13-hexaen-5-yl}propanenitrile]
3 | > 8.00 | 7.00 to 8.00 | < 7.00 | N#CC[C@H](C1CCCC1)n1cc2c(n1)C(=O)c1c[nH]c3nccc-2c13 [Example 4, (3R)-3-cyclopentyl-3-{7-oxo-4,5,10,12-tetraazatetracyclo[6.6.1.0^2,6.0^11,15]pentadeca-1(15),2,5,8,11,13-hexaen-4-yl}propanenitrile]
